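Protocol summary: plate cells (96-well), add compound at 5 concentrations, incubate 48 h, interpolate endpoints linearly. At the GI50, growth is halved. TGI: concentration producing complete growth inhibition.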
What was measured:
Test in all cases: DTP human tumour cell line panel, 48 h
[1] = test system: 786-0 renal
[2] = test system: A498 renal
[3] = test system: A549 NSCLC
[4] = test system: ACHN renal
[5] = test system: CAKI-1 renal
[6] = test system: CCRF-CEM leukemia
[7] = test system: COLO 205 colon
[8] = test system: DLD-1 colon
[9] = test system: DMS 114 small cell lung
[10] = test system: DMS 273 small cell lung
[11] = test system: EKVX NSCLC
[12] = test system: HCC-2998 colon
[13] = test system: HCT-116 colon
[14] = test system: HCT-15 colon
[15] = test system: HL-60(TB) leukemia
[16] = test system: HOP-62 NSCLC
[17] = test system: HOP-92 NSCLC
[18] = test system: HT29 colon
[19] = test system: IGROV1 ovarian
[20] = test system: K-562 leukemia
[21] = test system: KM12 colon
[22] = test system: KM20L2 colon
[23] = test system: LOX IMVI melanoma
[24] = test system: LXFL 529 NSCLC
[25] = test system: M14 melanoma
[26] = test system: M19-MEL melanoma
[27] = test system: MALME-3M melanoma
[28] = test system: MOLT-4 leukemia
[29] = test system: NCI-H226 lung
[30] = test system: NCI-H23 lung
[31] = test system: NCI-H460 lung
[32] = test system: NCI-H522 lung
[33] = test system: OVCAR-3 ovarian
[34] = test system: OVCAR-4 ovarian
[35] = test system: OVCAR-5 ovarian
[36] = test system: OVCAR-8 ovarian
[37] = test system: RPMI-8226 leukemia
[38] = test system: SF-268 CNS
[39] = test system: SF-295 CNS
[40] = test system: SF-539 CNS
[41] = test system: SK-MEL-2 melanoma
[42] = test system: SK-MEL-28 melanoma
[43] = test system: SK-MEL-5 melanoma
[44] = test system: SK-OV-3 ovarian
[45] = test system: SN12C renal
[46] = test system: SNB-19 CNS
[47] = test system: SNB-75 CNS
[48] = test system: SW-620 colon
[49] = test system: TK-10 renal
[50] = test system: U251 CNS
[51] = test system: UACC-257 melanoma
[52] = test system: UACC-62 melanoma
[53] = test system: UO-31 renal
[54] = test system: RXF 393 renal
[55] = test system: SNB-78 CNS
[56] = test system: SR leukemia

Structure (SMILES): [Cl-].[Dy+3].[O-]/N=C(\c1ccccc1)c1ccccn1.[O-]/N=C(\c1ccccc1)c1ccccn1.[O-]/N=C(\c1ccccc1)c1ccccn1
- GI50 [1]: 32.2 µM
- TGI [1]: 96.6 µM
- GI50 [2]: 25.8 µM
- TGI [2]: > 100 µM
- GI50 [3]: 32.2 µM
- TGI [3]: > 100 µM
- GI50 [4]: 34.6 µM
- TGI [4]: > 100 µM
- GI50 [5]: 31 µM
- TGI [5]: > 100 µM
- GI50 [6]: 23.6 µM
- TGI [6]: 97.4 µM
- GI50 [7]: 33.5 µM
- TGI [7]: > 100 µM
- GI50 [8]: 35.9 µM
- TGI [8]: > 100 µM
- GI50 [9]: 24.6 µM
- TGI [9]: 77.6 µM
- GI50 [10]: 29.8 µM
- TGI [10]: > 100 µM
- GI50 [11]: 31.2 µM
- TGI [11]: > 100 µM
- GI50 [12]: 27.6 µM
- TGI [12]: 88.8 µM
- GI50 [13]: 49.8 µM
- TGI [13]: > 100 µM
- GI50 [14]: 37 µM
- TGI [14]: > 100 µM
- GI50 [15]: 18.4 µM
- TGI [15]: 58.4 µM
- GI50 [16]: 24.7 µM
- TGI [16]: > 100 µM
- GI50 [17]: 41.4 µM
- TGI [17]: > 100 µM
- GI50 [18]: 45.9 µM
- TGI [18]: > 100 µM
- GI50 [19]: 33.1 µM
- TGI [19]: > 100 µM
- GI50 [20]: 35.9 µM
- TGI [20]: > 100 µM
- GI50 [21]: 55.3 µM
- TGI [21]: > 100 µM
- GI50 [22]: 42 µM
- TGI [22]: > 100 µM
- GI50 [23]: 21.9 µM
- TGI [23]: 54.1 µM
- GI50 [24]: 41.2 µM
- TGI [24]: > 100 µM
- GI50 [25]: 22.1 µM
- TGI [25]: 43.1 µM
- GI50 [26]: 31.3 µM
- TGI [26]: 94.6 µM
- GI50 [27]: 34.4 µM
- TGI [27]: > 100 µM
- GI50 [28]: 8.47 µM
- TGI [28]: 78.7 µM
- GI50 [29]: 17.3 µM
- TGI [29]: 58.4 µM
- GI50 [30]: 37.2 µM
- TGI [30]: > 100 µM
- GI50 [31]: 28.8 µM
- TGI [31]: > 100 µM
- GI50 [32]: 19.5 µM
- TGI [32]: 65.6 µM
- GI50 [33]: 24.4 µM
- TGI [33]: 92.6 µM
- GI50 [34]: 44.3 µM
- TGI [34]: > 100 µM
- GI50 [35]: 42.4 µM
- TGI [35]: > 100 µM
- GI50 [36]: 35.8 µM
- TGI [36]: > 100 µM
- GI50 [37]: 45.1 µM
- TGI [37]: > 100 µM
- GI50 [38]: 30.2 µM
- TGI [38]: 98.9 µM
- GI50 [39]: 20.9 µM
- TGI [39]: 68.8 µM
- GI50 [40]: 25.5 µM
- TGI [40]: 64.3 µM
- GI50 [41]: 27.3 µM
- TGI [41]: 64.8 µM
- GI50 [42]: 27.6 µM
- TGI [42]: 90.8 µM
- GI50 [43]: 23.7 µM
- TGI [43]: 61.7 µM
- GI50 [44]: 33.9 µM
- TGI [44]: > 100 µM
- GI50 [45]: 46.4 µM
- TGI [45]: > 100 µM
- GI50 [46]: 38 µM
- TGI [46]: > 100 µM
- GI50 [47]: 3.54 µM
- TGI [47]: 22.1 µM
- GI50 [48]: 41.8 µM
- TGI [48]: > 100 µM
- GI50 [49]: 46.3 µM
- TGI [49]: > 100 µM
- GI50 [50]: 47.5 µM
- TGI [50]: > 100 µM
- GI50 [51]: 24.5 µM
- TGI [51]: 67.8 µM
- GI50 [52]: 32.5 µM
- TGI [52]: > 100 µM
- GI50 [53]: 25.3 µM
- TGI [53]: 65.3 µM

Structure (SMILES): COC(=O)CN1CCSC1=NC#N
- TGI [2]: > 100 µM
- TGI [3]: > 100 µM
- TGI [6]: > 100 µM
- TGI [10]: > 100 µM
- TGI [11]: > 100 µM
- TGI [15]: > 100 µM
- TGI [16]: > 100 µM
- TGI [17]: > 100 µM
- TGI [18]: > 100 µM
- TGI [19]: > 100 µM
- TGI [20]: > 100 µM
- TGI [21]: > 100 µM
- TGI [25]: > 100 µM
- TGI [28]: > 100 µM
- TGI [29]: > 100 µM
- TGI [30]: > 100 µM
- TGI [31]: > 100 µM
- TGI [32]: > 100 µM
- TGI [35]: > 100 µM
- TGI [54]: > 100 µM
- TGI [38]: > 100 µM
- TGI [42]: > 100 µM
- TGI [44]: > 100 µM
- TGI [46]: > 100 µM
- TGI [55]: > 100 µM
- TGI [56]: > 100 µM
- TGI [49]: > 100 µM
- TGI [50]: > 100 µM
- TGI [52]: > 100 µM
- TGI [53]: > 100 µM
